pEC50: −log10 of the molar value.
Legend:
[1] = target: human CB2 receptor (Homo sapiens (Human), UniProt P34972); assay: cAMP assay, CHO cells expressing human CB2 receptors; type: cell-based; details: functional cAMP assay, read-out: CB2 hcAMP EC50
Method: (§1) CHO cells expressing human CB1 or CB2 receptors are seeded 17-24 hours prior to the experiment 50.000 cells per well in a black 96 well plate with flat clear bottom (Corning Costar #3904) in DMEM (Invitrogen No. 31331), 1×HT supplement, with 10% fetal calf serum and incubated at 5% CO2 and 37° C. in a humidified incubator. The growth medium was exchanged with Krebs Ringer Bicarbonate buffer with 1 mM IBMX and incubated at 30° C. for 30 min. Compounds were added to a final assay volume of 100 μl and incubated for 30 min at 30° C. Using the cAMP-Nano-TRF detection kit the assay (Roche Diagnostics) was stopped by the addition of 50 μl lysis reagent (Tris, NaCl, 1.5% Triton X100, 2.5% NP40, 10% NaN3) and 50 μl detection solutions (20 μM mAb Alexa700-cAMP 1:1, and 48 μM Ruthenium-2-AHA-cAMP) and shaken for 2 h at room temperature. The time-resolved energy transfer is measured by a TRF reader (Evotec Technologies GmbH), equipped with a ND:YAG laser as excitation source. The plate is measured twice with the excitation at 355 nm and at the emission with a delay of 100 ns and a gate of 100 ns, total exposure time 10 s at 730 (bandwidth 30 nm) or 645 nm (bandwidth 75 nm), respectively. The FRET signal is calculated as follows: FRET=T730-Alexa730-P(T645-B645) with P=Ru730-B730/Ru645-B645, where T730 is the test well measured at 730 nM, T645 is the test well measured at 645 nm, B730 and B645 are the buffer controls at 730 nm and 645 nm, respectively. cAMP content is determined from the function of a standard curve spanning from 10 μM to 0.13 nM cAMP.
(§2) EC50 values were determined using Activity Base analysis (ID Business Solution, Limited). The EC50 values for a wide range of cannabinoid agonists generated from this assay were in agreement with the values published in the scientific literature.

[2] = target: human CB1 receptor (Homo sapiens (Human), UniProt P21554); assay: cAMP assay, CHO cells expressing human CB1 receptors; type: cell-based; details: functional cAMP assay, read-out: CB1 hcAMP EC50
Sequence of human CB1 receptor (P21554 whole entry): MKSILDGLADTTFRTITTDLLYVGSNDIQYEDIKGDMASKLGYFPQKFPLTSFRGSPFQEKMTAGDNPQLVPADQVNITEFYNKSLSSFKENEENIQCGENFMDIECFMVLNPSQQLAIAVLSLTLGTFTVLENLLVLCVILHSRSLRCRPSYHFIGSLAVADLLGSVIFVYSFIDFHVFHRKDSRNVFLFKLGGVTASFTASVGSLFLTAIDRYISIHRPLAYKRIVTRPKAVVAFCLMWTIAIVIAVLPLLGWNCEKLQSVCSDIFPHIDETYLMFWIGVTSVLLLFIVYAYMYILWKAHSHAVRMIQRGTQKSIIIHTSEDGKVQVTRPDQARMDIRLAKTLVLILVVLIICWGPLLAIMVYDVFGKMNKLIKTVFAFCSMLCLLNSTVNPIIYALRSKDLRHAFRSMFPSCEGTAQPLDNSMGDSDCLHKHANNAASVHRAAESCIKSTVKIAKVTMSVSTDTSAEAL
Method: as §1, §2

Sequence of human CB2 receptor (P34972 whole entry): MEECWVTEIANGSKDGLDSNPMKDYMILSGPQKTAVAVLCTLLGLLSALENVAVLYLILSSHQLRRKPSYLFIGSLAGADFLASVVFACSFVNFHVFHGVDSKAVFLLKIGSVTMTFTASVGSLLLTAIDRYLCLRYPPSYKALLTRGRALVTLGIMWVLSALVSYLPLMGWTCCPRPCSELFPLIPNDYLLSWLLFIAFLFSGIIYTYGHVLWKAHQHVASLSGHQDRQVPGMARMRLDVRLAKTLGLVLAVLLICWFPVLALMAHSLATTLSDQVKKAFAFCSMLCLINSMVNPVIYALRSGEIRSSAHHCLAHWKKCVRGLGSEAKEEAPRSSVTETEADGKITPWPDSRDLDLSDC

SMILES | pEC50 [1] | pEC50 [2]
COCC(C)Oc1nc(N2CCC(F)(F)C2)c2nnn(Cc3ccccc3Cl)c2n1 (centres unmarked) [Example 57, 3-[(2-Chlorophenyl)methyl]-7-(3,3-difluoropyrrolidin-1-yl)-5-(1-methoxypropan-2-yloxy)triazolo[4,5-d]pyrimidine] | 8.06 | < 5.00
CC(C)(O)COc1nc(N2CCC(F)(F)C2)c2nnn(Cc3ccccc3Cl)c2n1 [Example 58, 1-[3-[(2-Chlorophenyl)methyl]-7-(3,3-difluoropyrrolidin-1-yl)triazolo[4,5-d]pyrimidin-5-yl]oxy-2-methylpropan-2-ol] | 7.80 | < 5.00
CCCOc1nc(N2CCC(F)(F)C2)c2nnn(Cc3ccccc3Cl)c2n1 [Example 59, 3-[(2-Chlorophenyl)methyl]-7-(3,3-difluoropyrrolidin-1-yl)-5-propoxytriazolo[4,5-d]pyrimidine] | 9.05 | < 5.00
O[C@H]1CCN(c2nc(OCC(F)(F)F)nc3c2nnn3Cc2ccccc2Cl)C1 [Example 60, (3S)-1-[3-[(2-Chlorophenyl)methyl]-5-(2,2,2-trifluoroethoxy)triazolo[4,5-d]pyrimidin-7-yl]pyrrolidin-3-ol] | 9.10 | < 5.00
O[C@H]1CCN(c2nc(OCC(F)(F)F)nc3c2nnn3Cc2ccccc2C(F)(F)F)C1 [Example 61, (3S)-1-[5-(2,2,2-Trifluoroethoxy)-3-[[2-(trifluoromethyl)phenyl]methyl]triazolo[4,5-d]pyrimidin-7-yl]pyrrolidin-3-ol] | 8.12 | < 5.00
CC(C)Oc1nc(N2CC[C@H](O)C2)c2nnn(Cc3ccccc3Cl)c2n1 [Example 62, (3S)-1-[3-[(2-Chlorophenyl)methyl]-5-propan-2-yloxytriazolo[4,5-d]pyrimidin-7-yl]pyrrolidin-3-ol] | 7.83 | < 5.00
CC(C)Oc1nc(N2CC[C@H](O)C2)c2nnn(Cc3ccccc3S(C)(=O)=O)c2n1 [Example 63, (3S)-1-[3-[(2-Methylsulfonylphenyl)methyl]-5-propan-2-yloxytriazolo[4,5-d]pyrimidin-7-yl]pyrrolidin-3-ol] | 6.72 | < 5.00
CC(C)Oc1nc(N2CC[C@H](O)C2)c2nnn(Cc3nnnn3C)c2n1 [Example 64, (3S)-1-[3-[(1-Methyltetrazol-5-yl)methyl]-5-propan-2-yloxytriazolo[4,5-d]pyrimidin-7-yl]pyrrolidin-3-ol] | 6.76 | < 5.00
Cn1nnnc1Cn1nnc2c(N3CCC(F)(F)C3)nc(OCC(C)(C)C)nc21 [Example 65, 7-(3,3-Difluoropyrrolidin-1-yl)-5-(2,2-dimethylpropoxy)-3-[(1-methyltetrazol-5-yl)methyl]triazolo[4,5-d]pyrimidine] | 7.92 | < 5.00
CC(C)(C)COc1nc(N2CCC(F)(F)C2)c2nnn(Cc3ccccc3S(C)(=O)=O)c2n1 [Example 66, 7-(3,3-Difluoropyrrolidin-1-yl)-5-(2,2-dimethylpropoxy)-3-[(2-methylsulfonylphenyl)methyl]triazolo[4,5-d]pyrimidine] | 8.41 | < 5.00
Cc1nonc1Cn1nnc2c(N3CCC(F)(F)C3)nc(OCC(C)(C)C)nc21 [Example 67, 3-[[7-(3,3-Difluoropyrrolidin-1-yl)-5-(2,2-dimethylpropoxy)triazolo[4,5-d]pyrimidin-3-yl]methyl]-4-methyl-1,2,5-oxadiazole] | 8.77 | < 5.00
C[C@H](Oc1nc(N2CCC(F)(F)C2)c2nnn(Cc3ccccc3C(F)(F)F)c2n1)C(F)(F)F [Example 68, 7-(3,3-Difluoropyrrolidin-1-yl)-3-[[2-(trifluoromethyl)phenyl]methyl]-5-[(2S)-1,1,1-trifluoropropan-2-yl]oxytriazolo[4,5-d]pyrimidine] | 9.40 | < 5.00
C[C@H](Oc1nc(N2CCC(F)(F)C2)c2nnn(Cc3ccccc3S(C)(=O)=O)c2n1)C(F)(F)F [Example 69, 7-(3,3-Difluoropyrrolidin-1-yl)-3-[(2-methylsulfonylphenyl)methyl]-5-[(2S)-1,1,1-trifluoropropan-2-yl]oxytriazolo[4,5-d]pyrimidine] | 8.49 | < 5.00
C[C@H](Oc1nc(N2CCC(F)(F)C2)c2nnn(Cc3ncccc3Cl)c2n1)C(F)(F)F [Example 70, 3-[(3-Chloropyridin-2-yl)methyl]-7-(3,3-difluoropyrrolidin-1-yl)-5-[(2S)-1,1,1-trifluoropropan-2-yl]oxytriazolo[4,5-d]pyrimidine] | 8.29 | < 5.00
Cc1nnc(Cn2nnc3c(N4CCC(F)(F)C4)nc(O[C@@H](C)C(F)(F)F)nc32)o1 [Example 71, 2-[[7-(3,3-Difluoropyrrolidin-1-yl)-5-[(2S)-1,1,1-trifluoropropan-2-yl]oxytriazolo[4,5-d]pyrimidin-3-yl]methyl]-5-methyl-1,3,4-oxadiazole] | 6.67 | < 5.00
Cc1noc(Cn2nnc3c(N4CCC(F)(F)C4)nc(O[C@@H](C)C(F)(F)F)nc32)n1 [Example 72, 5-[[7-(3,3-Difluoropyrrolidin-1-yl)-5-[(2S)-1,1,1-trifluoropropan-2-yl]oxytriazolo[4,5-d]pyrimidin-3-yl]methyl]-3-methyl-1,2,4-oxadiazole] | 7.17 | < 5.00
C[C@H](Oc1nc(N2CCC(F)(F)C2)c2nnn(Cc3nnnn3C)c2n1)C(F)(F)F [Example 73, 7-(3,3-Difluoropyrrolidin-1-yl)-3-[(1-methyltetrazol-5-yl)methyl]-5-[(2S)-1,1,1-trifluoropropan-2-yl]oxytriazolo[4,5-d]pyrimidine] | 7.37 | < 5.00
Cc1nonc1Cn1nnc2c(N3CCC(F)(F)C3)nc(O[C@@H](C)C(F)(F)F)nc21 [Example 74, 3-[[7-(3,3-Difluoropyrrolidin-1-yl)-5-[(2S)-1,1,1-trifluoropropan-2-yl]oxytriazolo[4,5-d]pyrimidin-3-yl]methyl]-4-methyl-1,2,5-oxadiazole] | 8.74 | < 5.00
C[C@H](Oc1nc(N2CCC(F)(F)C2)c2nnn(CCC(F)(F)F)c2n1)C(F)(F)F [Example 75, 7-(3,3-Difluoropyrrolidin-1-yl)-5-[(2S)-1,1,1-trifluoropropan-2-yl]oxy-3-(3,3,3-trifluoropropyl)triazolo[4,5-d]pyrimidine] | 8.37 | < 5.00
C[C@H](Oc1nc(N2CCC(F)(F)C2)c2nnn(Cc3nnnn3C3CC3)c2n1)C(F)(F)F [Example 76, 3-[(1-Cyclopropyltetrazol-5-yl)methyl]-7-(3,3-difluoropyrrolidin-1-yl)-5-[(2S)-1,1,1-trifluoropropan-2-yl]oxytriazolo[4,5-d]pyrimidine] | 7.75 | < 5.00
CC(=O)N[C@H]1CCN(c2nc(OCC(C)(C)C)nc3c2nnn3Cc2ccccc2Cl)C1 [Example 77, N-[(3S)-1-[3-[(2-Chlorophenyl)methyl]-5-(2,2-dimethylpropoxy)triazolo[4,5-d]pyrimidin-7-yl]pyrrolidin-3-yl]acetamide] | 7.24 | < 5.00
CC(=O)N[C@H]1CCN(c2nc(OCC(C)(C)C)nc3c2nnn3Cc2ncccc2Cl)C1 [Example 78, N-[(3S)-1-[3-[(3-Chloropyridin-2-yl)methyl]-5-(2,2-dimethylpropoxy)triazolo[4,5-d]pyrimidin-7-yl]pyrrolidin-3-yl]acetamide] | 6.78 | < 5.00
